Assay results as given in article PMC7767053, “Functional Analysis of Odorant-Binding Proteins 12 and 17 from Wheat Blossom Midge Sitodiplosis mosellana Géhin (Diptera: Cecidomyiidae)” (Insects, 2020).
“Also recorded” adds a separate entry of the source. Where two headings read alike, the source gives them in different places.

Experiments:
[1] = target: SmosOBP17 (Sitodiplosis mosellana, UniProt A0A346RTY9); test: Fluorescence competitive binding assay with 1-NPN probe, recombinant SmosOBP17; conditions: for Ki: calculated from IC50, Ki = [IC50]/(1 + [1-NPN]/K1-NPN); for binding to SmosOBP17 (in words): fluorescence competitive binding
Description: (§1) To determine binding affinities of SmosOBP12 and SmosOBP17 to host plant volatile compounds, fluorescence competitive binding assays were conducted using 1-N-phenyl-naphthylamine (1-NPN) as the fluorescent probe. Twenty-eight volatile compounds from winter wheat (Table 2) were selected based on our previous research. Both the probe and candidate ligands were dissolved in chromatographic-grade methanol to obtain 1 mM stock solutions, whereas recombinant SmosOBPs were diluted in 20 mM Tris-HCl (pH 7.4) to 2 μM. Fluorescence intensity was detected on an F-4600 fluorescence spectrophotometer (Hitachi, Tokyo, Japan) with a 1 cm light path quartz cuvette. Slits of both excitation and emissions were 10 nm in width. The probe was excited at 337 nm, and emission spectra were recorded between 370 and 550 nm.
(§2) Affinities of SmosOBPs to tested volatile ligands were measured by competition assays: to the 1 mL solution containing 2 μM recombinant protein and 2 μM 1-NPN, 1 mM solution of each putative volatile ligand (in a 2 µL aliquot) was added to final concentrations of 2–14 μM for SmosOBP12 and 2–40 μM for SmosOBP17, respectively. Maximal fluorescence intensities were plotted against ligand concentrations. Data were obtained from three independent measurements.
(§3) The Kd value was calculated using GraphPad Prism 5 (GraphPad Software Inc., La Jolla, CA, USA) via nonlinear regression for a unique site of binding. The inhibition constant (Ki) of each ligand competitor was calculated from the corresponding IC50 value (the concentration of competitor displacing 50% of initial fluorescence intensity) according to the equation: Ki = [IC50]/(1 + [1-NPN]/K1-NPN), where [1-NPN] is the free concentration of 1-NPN, and K1-NPN is the dissociation constant of the SmosOBPs/1-NPN complex.

[2] = target: SmosOBP12 (Sitodiplosis mosellana, UniProt A0A346RTY7); test: Fluorescence competitive binding assay with 1-NPN probe, recombinant SmosOBP12; conditions: for Ki: calculated from IC50, Ki = [IC50]/(1 + [1-NPN]/K1-NPN); for binding to SmosOBP12 (in words): fluorescence competitive binding
Description: as §1, §2, §3

[3] = tested on: female antennae of S. mosellana; design: method as in Cheng et al., 2020; conditions: ref Cheng et al., 2020; cited from earlier work
[4] = tested on: S. mosellana females; test: Y-tube olfactometer bioassay; format: in vivo, Sitodiplosis mosellana; conditions: 10 μL of 20 μg/μL in paraffin oil vs paraffin oil control; 60 females
Description: Behavioral responses of S. mosellana females to the 28 volatile ligands were measured in a glass Y-tube olfactometer. The base and two arms of the Y-tube are 15 cm in length and 25 mm in internal diameter. The angle between arms is 60°. A 10 μL aliquot of the test chemical in paraffin oil at a concentration of 20 μg/μL [45] was applied to a filter paper strip (20 × 20 mm), which was allowed to evaporate for 20 s and then placed into one of the two odor bottles. The other odor bottle contained a filter paper strip treated with 10 μL of paraffin oil as the control. Moist, activated-charcoal filtered air entered both odor bottles connected by Teflon tubing to their respective arms of the Y-tube. The airflow rate through the olfactometer was 100 mL/min, which was measured by a float rotor meter. A newly emerged female S. mosellana adult was introduced into the end of the base of the Y-tube, which was then immediately covered with a dark paper box. An office lamp (20 W) illuminated the joint of two arms to facilitate observation. The choice was made if the S. mosellana female walked or flew 5 cm past the Y junction within 5 min and remained there for at least 15 s. Otherwise, it would be recorded as no-choice. Odor source was renewed for every five individuals. After testing for 10 individuals, the Y-tube was thoroughly cleaned with 95% ethanol and dried, and the treatment and control arms were switched to avoid the directional bias. After one odor source was tested, the Y-tube, odor bottles, and Teflon tubing were cleaned and dried before reuse. All experiments were conducted in a laboratory with a temperature of 25 ± 1 °C from 5:00 to 9:00 p.m. Sixty female adults were tested in each treatment group, and each individual was used only once. The choice response of insects in each treatment group was analyzed by the chi-square test using SPSS 20.0 software (Chicago, IL, USA). Non-selecting insects were recorded but not included in the statistical analysis.

[5] = displacement of 1-NPN, 2 μM protein, 2 μM 1-NPN, ligand 2–40 μM, three independent measurements, read-out: SmosOBP17 IC50
[6] = displacement of 1-NPN, 2 μM protein, 2 μM 1-NPN, ligand 2–14 μM, three independent measurements, read-out: SmosOBP12 IC50

Sequence of SmosOBP12 (A0A346RTY7 entry or part of it): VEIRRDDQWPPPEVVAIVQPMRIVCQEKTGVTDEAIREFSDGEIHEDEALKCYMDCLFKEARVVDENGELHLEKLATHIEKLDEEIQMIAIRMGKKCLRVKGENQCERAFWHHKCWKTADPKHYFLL
Sequence of SmosOBP17 (A0A346RTY9 entry or part of it): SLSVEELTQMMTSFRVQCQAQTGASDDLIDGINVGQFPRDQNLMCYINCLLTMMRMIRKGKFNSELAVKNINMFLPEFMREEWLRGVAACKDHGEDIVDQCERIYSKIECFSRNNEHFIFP

SMILES	Kd ([1]; 2 µM protein titrated with 1-NPN 0–24 µM, read-out: dissociation constant (Kd) of SmosOBP17 with 1-NPN)	Kd ([2]; 2 µM protein titrated with 1-NPN 0–24 µM, read-out: dissociation constant (Kd) of SmosOBP12 with 1-NPN)	IC50 [1, 5]	electrophysiological response on female antennae [3]	Ki ([2]; read-out: SmosOBP12 Ki)	IC50 [2, 6]	behavioral response of S. mosellana female adults [4]	Ki [1]	binding to SmosOBP17 (in words) [1]	IC50 [1]	IC50 [2]	Ki ([2]; SmosOBP12 Ki)	binding to SmosOBP12 (in words) [2]
c1ccc(Nc2cccc3ccccc23)cc1 [1-NPN, 1-N-phenyl-naphthylamine, reference compound]	3.02 µM	4.26 µM											
C=CC(O)CCCCC (stereo not drawn) [1-Octen-3-ol]			> 40 µM	strong electrophysiological responses	5.29 ± 0.11 µM	6.55 ± 0.12 µM	intensive response; also recorded: significant attraction; also recorded: significantly attracted						
CCCCC(CC)CO (stereo not drawn) [2-Ethyl hexanol]			> 40 µM		6.36 ± 0.25 µM	7.86 ± 0.31 µM		> 30 µM	did not bind				
CCCCC(C)=O [2-Hexanone]										> 40 µM	12.66 ± 0.08 µM	10.25 ± 0.06 µM	
CCCCCCCCCCCC(C)=O [2-Tridecanone]			> 40 µM		> 11.3 µM	> 14 µM		> 30 µM	did not show any affinity				did not show any affinity
CC1=CCC2C(C1)C2(C)C (stereo not drawn) [3-Carene]			> 40 µM		3.84 ± 0.12 µM	4.76 ± 0.15 µM	intensive response; also recorded: significant attraction						
CCCC(O)CC (stereo not drawn) [3-Hexanol]			34.68 ± 0.34 µM	strong electrophysiological responses	3.33 ± 0.05 µM	4.12 ± 0.07 µM	intensive response; also recorded: significant attraction; also recorded: significantly attracted	26.05 ± 0.25 µM					
CCCC(=O)CC [3-Hexanone]			37.1 ± 0.06 µM		6.26 ± 0.03 µM	7.74 ± 0.04 µM		27.87 ± 0.04 µM					
CCCCC(=O)CCCC [5-Nonanone]			> 40 µM		6.72 ± 0.1 µM	8.32 ± 0.14 µM							
CC/C=C\CCOC(C)=O [(Z)-3-Hexenyl acetate]			> 40 µM	strong electrophysiological responses	7.18 ± 0.01 µM	8.88 ± 0.02 µM	intensive response; also recorded: significant attraction; also recorded: significantly attracted						
CC(C)(CO)[C@@H](O)C(=O)NCCCO [D-Panthenol]			38.01 ± 0.2 µM	strong electrophysiological responses	4.07 ± 0.05 µM	5.04 ± 0.08 µM	intensive response; also recorded: significant attraction; also recorded: significantly attracted	28.55 ± 0.15 µM					
CCCCCCCCCCCC=O [Dodecanal]			> 40 µM		8.06 ± 0.37 µM	9.94 ± 0.44 µM		> 30 µM	did not bind				bound
CCCCCCCCCCCC [Dodecane]			> 40 µM		> 11.3 µM	> 14 µM		> 30 µM					
CCCCCCC(=O)OCC [Ethyl heptanoate]			38.28 ± 0.12 µM	strong electrophysiological responses	7.29 ± 0.09 µM	9 ± 0.11 µM	intensive response; also recorded: significant attraction; also recorded: significantly attracted	28.76 ± 0.09 µM					
CCCCCCCOC(C)=O [Heptyl acetate]			28.79 ± 0.09 µM	strong electrophysiological responses	3.34 ± 0.02 µM	4.11 ± 0.02 µM	intensive response; also recorded: significant attraction; also recorded: significantly attracted	21.63 ± 0.06 µM					
CCCCCCOC(=O)CC [Hexyl propionate]					5.9 ± 0.12 µM	7.28 ± 0.16 µM							
CC(=O)OCCCCCC(C)C [Isooctyl acetate]			> 40 µM		> 11.3 µM	> 14 µM		> 30 µM	did not show any affinity				did not show any affinity
CCCCCCCCCCCCCCC [Pentadecane]			> 40 µM		> 11.3 µM	> 14 µM		> 30 µM					
CCCCCOC(=O)CCCC [Pentyl pentanoate]			> 40 µM		4.24 ± 0.03 µM	5.23 ± 0.01 µM							
CCCCCCCCCCCCC [Tridecane]			> 40 µM		> 11.3 µM	> 14 µM		> 30 µM					
CCCCCCCCCCCO [Undecanol]			> 40 µM		4.39 ± 0.02 µM	5.43 ± 0.03 µM							
CC1=CC[C@@]23CC1C(C)(C)[C@@H]2CC[C@H]3C [α-Cedrene]			> 40 µM		> 11.3 µM	> 14 µM		> 30 µM	did not show any affinity				did not show any affinity
C/C1=C\CC/C(C)=C/CC(C)(C)/C=C/C1 [α-Humulene]			> 40 µM		> 11.3 µM	> 14 µM		> 30 µM	did not show any affinity				did not show any affinity
CC1=CCC2CC1C2(C)C (stereo not drawn) [α-Pinene]									did not bind	> 40 µM	7.63 ± 0.06 µM	6.17 ± 0.04 µM	
C=C1CC/C=C(\C)CC[C@@H]2[C@@H]1CC2(C)C [β-Caryophyllene]									did not show any affinity	> 40 µM	> 14 µM	> 11.3 µM	did not show any affinity
